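Where inhibition never reached the appropriate level, the endpoint shown equals the highest concentration tested. Otherwise, values were interpolated linearly from a five-concentration, 48-hour dose response in 96-well plates. Definition used: TGI = concentration required for complete inhibition of growth.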
Key:
Test in all cases: NCI-60 cell line screen, 48 h
[1] = system: IGROV1 ovarian
[2] = system: HL-60(TB) leukemia
[3] = system: OVCAR-5 ovarian
[4] = system: HT29 colon
[5] = system: U251 CNS
[6] = system: TK-10 renal
[7] = system: NCI-H226 lung
[8] = system: OVCAR-4 ovarian
[9] = system: SK-MEL-2 melanoma
[10] = system: UACC-257 melanoma
[11] = system: HCC-2998 colon
[12] = system: SK-OV-3 ovarian
[13] = system: DLD-1 colon
[14] = system: SK-MEL-5 melanoma
[15] = system: OVCAR-3 ovarian
[16] = system: COLO 205 colon
[17] = system: ACHN renal
[18] = system: CCRF-CEM leukemia
[19] = system: RPMI-8226 leukemia
[20] = system: LOX IMVI melanoma
[21] = system: SK-MEL-28 melanoma
[22] = system: XF 498 CNS
[23] = system: KM12 colon
[24] = system: SF-295 CNS
[25] = system: A549 NSCLC
[26] = system: DMS 273 small cell lung
[27] = system: HCT-15 colon
[28] = system: KM20L2 colon
[29] = system: NCI-H522 lung
[30] = system: A498 renal
[31] = system: UACC-62 melanoma
[32] = system: OVCAR-8 ovarian
[33] = system: RXF-631 renal
[34] = system: UO-31 renal
[35] = system: SN12C renal
[36] = system: NCI-H460 lung
[37] = system: EKVX NSCLC
[38] = system: DMS 114 small cell lung
[39] = system: RXF 393 renal
[40] = system: SW-620 colon
[41] = system: MALME-3M melanoma
[42] = system: SNB-75 CNS
[43] = system: NCI-H23 lung
[44] = system: K-562 leukemia
[45] = system: SNB-78 CNS
[46] = system: MOLT-4 leukemia
[47] = system: HOP-62 NSCLC
[48] = system: SNB-19 CNS
[49] = system: 786-0 renal
[50] = system: SF-539 CNS
[51] = system: M19-MEL melanoma
[52] = system: SF-268 CNS
[53] = system: CAKI-1 renal
[54] = system: HOP-92 NSCLC
[55] = system: HCT-116 colon
[56] = system: SR leukemia
[57] = system: M14 melanoma
[58] = system: LXFL 529 NSCLC

O=C(c1ccc(Cl)cc1Cl)N(/N=C/C=C/c1ccccc1)c1nnc(-c2ccccc2)c(-c2ccccc2)n1
TGI [1]: > 100 µM
TGI [2]: > 100 µM
TGI [3]: > 100 µM
TGI [4]: > 100 µM
TGI [5]: > 100 µM
TGI [6]: > 100 µM
TGI [7]: > 100 µM
TGI [8]: > 100 µM
TGI [9]: > 100 µM
TGI [10]: > 100 µM
TGI [11]: > 100 µM
TGI [12]: > 100 µM
TGI [13]: > 100 µM
TGI [14]: > 100 µM
TGI [15]: > 100 µM
TGI [16]: > 100 µM
TGI [17]: > 100 µM
TGI [18]: > 100 µM
TGI [19]: > 100 µM
TGI [20]: > 100 µM
TGI [21]: > 100 µM
TGI [22]: > 100 µM
TGI [23]: > 100 µM
TGI [24]: > 100 µM
TGI [25]: > 100 µM
TGI [26]: > 100 µM
TGI [27]: > 100 µM
TGI [28]: > 100 µM
TGI [29]: 82.5 µM
TGI [30]: > 100 µM
TGI [31]: > 100 µM
TGI [32]: > 100 µM
TGI [33]: > 100 µM
TGI [34]: > 100 µM
TGI [35]: > 100 µM
TGI [36]: > 100 µM
TGI [37]: > 100 µM
TGI [38]: > 100 µM
TGI [39]: > 100 µM
TGI [40]: > 100 µM
TGI [41]: > 100 µM
TGI [42]: > 100 µM
TGI [43]: > 100 µM
TGI [44]: > 100 µM
TGI [45]: > 100 µM
TGI [46]: > 100 µM
TGI [47]: > 100 µM
TGI [48]: > 100 µM
TGI [49]: > 100 µM
TGI [50]: > 100 µM
TGI [51]: > 100 µM
TGI [52]: > 100 µM

COc1ccc([C@@H]2C[C@@H]3C(=O)OC(=O)[C@@H]3c3c2c2ccccc2n3C)cc1
TGI [1]: > 100 µM
TGI [2]: > 100 µM
TGI [4]: > 100 µM
TGI [6]: > 100 µM
TGI [7]: > 100 µM
TGI [53]: > 100 µM
TGI [8]: > 100 µM
TGI [9]: > 100 µM
TGI [10]: > 100 µM
TGI [11]: > 100 µM
TGI [54]: > 100 µM
TGI [12]: > 100 µM
TGI [13]: > 100 µM
TGI [15]: > 100 µM
TGI [16]: > 100 µM
TGI [18]: > 100 µM
TGI [19]: > 100 µM
TGI [55]: > 100 µM
TGI [21]: > 100 µM
TGI [22]: > 100 µM
TGI [23]: > 100 µM
TGI [24]: > 100 µM
TGI [25]: > 100 µM
TGI [26]: > 100 µM
TGI [29]: > 100 µM
TGI [30]: > 100 µM
TGI [31]: > 100 µM
TGI [32]: > 100 µM
TGI [33]: > 100 µM
TGI [34]: > 100 µM
TGI [56]: > 100 µM
TGI [35]: > 100 µM
TGI [37]: > 100 µM
TGI [38]: > 100 µM
TGI [57]: > 100 µM
TGI [40]: > 100 µM
TGI [41]: > 100 µM
TGI [42]: > 100 µM
TGI [43]: > 100 µM
TGI [44]: > 100 µM
TGI [46]: > 100 µM
TGI [47]: > 100 µM
TGI [48]: > 100 µM
TGI [49]: > 100 µM
TGI [50]: > 100 µM
TGI [51]: > 100 µM
TGI [52]: > 100 µM
TGI [58]: > 100 µM

O=C1c2ccccc2C(=O)N1C/C=N/NS(=O)(=O)c1ccc(F)cc1
TGI [1]: > 100 µM
TGI [2]: > 100 µM
TGI [5]: > 100 µM
TGI [6]: > 100 µM
TGI [7]: > 100 µM
TGI [53]: > 100 µM
TGI [8]: > 100 µM
TGI [9]: > 100 µM
TGI [10]: > 100 µM
TGI [11]: > 100 µM
TGI [13]: > 100 µM
TGI [14]: > 100 µM
TGI [16]: > 100 µM
TGI [17]: > 100 µM
TGI [18]: > 100 µM
TGI [19]: > 100 µM
TGI [55]: > 100 µM
TGI [20]: > 100 µM
TGI [22]: > 100 µM
TGI [23]: > 100 µM
TGI [24]: > 100 µM
TGI [25]: > 100 µM
TGI [26]: > 100 µM
TGI [27]: > 100 µM
TGI [28]: > 100 µM
TGI [29]: > 100 µM
TGI [31]: > 100 µM
TGI [32]: > 100 µM
TGI [33]: > 100 µM
TGI [34]: > 100 µM
TGI [56]: > 100 µM
TGI [35]: > 100 µM
TGI [37]: > 100 µM
TGI [38]: > 100 µM
TGI [40]: > 100 µM
TGI [41]: > 100 µM
TGI [42]: > 100 µM
TGI [43]: > 100 µM
TGI [44]: > 100 µM
TGI [46]: > 100 µM
TGI [48]: > 100 µM
TGI [49]: > 100 µM
TGI [50]: > 100 µM
TGI [51]: > 100 µM
TGI [52]: > 100 µM
TGI [58]: > 100 µM

— PubChem BioAssay (NCI)
